Measurements from US9326513B2, “Fungicidal compositions” (Syngenta Participations AG, priority 2011, dated 2016).

Tests used:
Format in all cases: in vivo
Settings in all cases: foliar, compared to untreated control leaf disks, read-out: disease control
[1] = test system: Blumeria graminis f. sp. tritici (Erysiphe graminis f. sp. tritici); assay: Blumeria graminis f. sp. tritici / wheat / leaf disc preventative (powdery mildew on wheat)
Procedure, shortened: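 Preventative leaf-disc test: compound (200 ppm) was sprayed onto cv. Kanzler wheat segments, which were dusted with conidia from infected plants 1 day after application. After incubation at 20° C and 60% rh, disease control relative to untreated segments was rated 6-8 days after application.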

[2] = test system: Puccinia recondita f. sp. tritici; assay: Puccinia recondita f. sp. tritici / wheat / leaf disc preventative (brown rust)
Excerpt: Puccinia recondita f. sp. tritici/Wheat/Leaf Disc Preventative (Brown Rust) Wheat leaf segments cv. Kanzler were placed on agar in multiwell plates (24-well format) and sprayed with the formulated test compound diluted in water. The leaf disks were inoculated with a spore suspension of the fungus 1 day after application.

[3] = test system: Puccinia recondita f. sp. tritici; assay: Puccinia recondita f. sp. tritici / wheat / leaf disc curative (brown rust)
Protocol: Puccinia recondita f. sp. tritici/Wheat/Leaf Disc Curative (Brown Rust) Wheat leaf segments cv. Kanzler are placed on agar in multiwell plates (24-well format). The leaf segments are inoculated with a spore suspension of the fungus. Plates were stored in darkness at 19° C. and 75% rh. The formulated test compound diluted in water was applied 1 day after inoculation.

Pyrenophora teres = Pyrenophora teres / barley / leaf disc preventative (net blotch)
Excerpt: Pyrenophora teres/Barley/Leaf Disc Preventative (Net Blotch) Barley leaf segments cv. Hasso were placed on agar in a multiwell plate (24-well format) and sprayed with the formulated test compound diluted in water. The leaf segments were inoculated with a spore suspension of the fungus 2 days after application.

Measured: pest or weed control at 200 ppm

CCN(C)/C=N/c1ccc(OC(C)c2cc(C)cc(C)c2)nc1C (stereo not drawn) [Q.358]
≥ 50%: all assays above

CCN(C)/C=N/c1cc(Br)c(OC2CC(C)C(C)C2)nc1C (stereo not drawn) [Q.382]
≥ 50%: all assays above

CCN(C)/C=N/c1cc(Br)c(OC(C)c2ccc3cccnc3c2)nc1C (stereo not drawn) [Q.242]
≥ 50%: all assays above

CCN(C)/C=N/c1cc(Br)c(OC2CCN(C(=O)C(C)C)CC2)nc1C [Q.162]
≥ 50%: all assays above

CCN(C)/C=N/c1cc(Br)c(OCc2ccc(OC)nc2)nc1C [Q.115]
≥ 50%: all assays above

CCCc1cccc(C(C)Oc2nc(C)c(/N=C/N(C)CC)cc2Br)c1 (stereo not drawn) [Q.344]
≥ 50%: all assays above

CCN(C)/C=N/c1cc(Br)c(OC2CCC(C)C(C)CC2)nc1C (stereo not drawn) [Q.308]
≥ 50%: all assays above

CCN(C)/C=N/c1cc(Br)c(OC2CCc3cccc(OC)c3C2)nc1C (stereo not drawn) [Q.024]
≥ 50%: all assays above

CCCC(C)Oc1nc(C)c(/N=C/N(C)CC)cc1Br (stereo not drawn) [Q.146]
≥ 50%: all assays above

CCN(C)/C=N/c1cc(Br)c(OCc2cccc(I)c2)nc1C [Q.174]
≥ 50%: all assays above

CCN(C)/C=N/c1cc(Br)c(OC2CCSCC2)nc1C [Q.158]
≥ 50%: all assays above

CCN(C)/C=N/c1cc(Br)c(OCCc2cccc(F)c2)nc1C [Q.116]
≥ 50%: all assays above

CCN(C)/C=N/c1cc(Br)c(O[C@@H](C)c2cc(F)cc(F)c2)nc1C [Q.260]
≥ 50%: all assays above

CCN(C)/C=N/c1cc(Br)c(OC(C)c2ccccc2Cl)nc1C (stereo not drawn) [Q.301]
≥ 50%: all assays above

CCN(C)/C=N/c1cc(C(F)F)c(OC(C)c2cc(F)cc(F)c2)nc1C (stereo not drawn) [Q.215]
≥ 50%: all assays above

CCN(C)/C=N/c1cc(Br)c(OC(C)c2ccccc2)nc1C (stereo not drawn) [Q.102]
≥ 50%: all assays above

C=Cc1cccc(COc2nc(C)c(/N=C/N(C)CC)cc2Br)c1 [Q.277]
≥ 50%: all assays above

CCN(C)/C=N/c1cc(Br)c(OC2CCC(=C(Cl)Cl)CC2)nc1C (stereo not drawn) [Q.071]
≥ 50%: all assays above

CCN(C)/C=N/c1cc(Br)c(OC2Cc3cc(Cl)c(OC)cc3C2)nc1C (stereo not drawn) [Q.378]
≥ 50%: all assays above

CCN(C)/C=N/c1cc(Br)c(OCc2cc(OC)cc(OC)c2)nc1C [Q.370]
≥ 50%: all assays above

CCN(C)/C=N/c1cc(I)c(OC(C)c2cc(F)cc(F)c2)nc1C (stereo not drawn) [Q.178]
≥ 50%: all assays above

CCN(C)/C=N/c1cc(Br)c(OCc2cccc(C)c2C)nc1C [Q.175]
≥ 50%: all assays above

Cc1ccccc1CCOc1ccc(/N=C/N(C)C(C)C)c(C)n1 [Q.352]
≥ 50%: all assays above

CCN(C)/C=N/c1cc(Br)c(OCC(C)c2ccccc2)nc1C (stereo not drawn) [Q.223]
≥ 50%: all assays above

CCN(C)/C=N/c1cc(Br)c(OCCCc2ccc(F)cc2)nc1C [Q.131]
≥ 50%: all assays above

CCN(C)/C=N/c1cc(I)c(O[C@H]2CC[C@@H](C(C)C)CC2)nc1C [Q.180]
≥ 50%: all assays above

CCN(C)/C=N/c1cc(Br)c(OCCCc2ccc(OC)cc2)nc1C [Q.014]
≥ 50%: all assays above

CCN(C)/C=N/c1cc(Br)c(OCc2cccc(C(C)F)c2)nc1C (stereo not drawn) [Q.291]
≥ 50%: all assays above

CCN(C)/C=N/c1cc(C2CC2)c(O[C@H]2CC[C@@H](C(C)C)CC2)nc1C [Q.249]
≥ 50%: all assays above

CCN(/C=N/c1cc(Br)c(OCCCC(C)C)nc1C)CC [Q.001]
≥ 50%: all assays above

CCN(C)/C=N/c1cc(Br)c(OC2CCN(C(C)=O)CC2)nc1C [Q.160]
≥ 50%: all assays above

CCN(C)/C=N/c1cc(Br)c(OCc2snc(-c3ccc(F)cc3)c2Cl)nc1C [Q.124]
≥ 50%: all assays above

CCN(C)/C=N/c1cc(Br)c(OC2Cc3ccc(OC)cc3C2)nc1C (stereo not drawn) [Q.199]
≥ 50%: all assays above
